Ends that are not written are not given here. Peptide text beside a SMILES is read from it.
How the values were obtained:
CRF2R = biological target: T1, CRF2R (Homo sapiens, UniProt Q13324); test: CRF2R agonist activation (EC50 / Emax), called comparative CRF binding; format: cell-based; details: for Emax: read-out: CRF2R Emax; for EC50: read-out: CRF2R EC50
T1 sequence (Q13324 1-411): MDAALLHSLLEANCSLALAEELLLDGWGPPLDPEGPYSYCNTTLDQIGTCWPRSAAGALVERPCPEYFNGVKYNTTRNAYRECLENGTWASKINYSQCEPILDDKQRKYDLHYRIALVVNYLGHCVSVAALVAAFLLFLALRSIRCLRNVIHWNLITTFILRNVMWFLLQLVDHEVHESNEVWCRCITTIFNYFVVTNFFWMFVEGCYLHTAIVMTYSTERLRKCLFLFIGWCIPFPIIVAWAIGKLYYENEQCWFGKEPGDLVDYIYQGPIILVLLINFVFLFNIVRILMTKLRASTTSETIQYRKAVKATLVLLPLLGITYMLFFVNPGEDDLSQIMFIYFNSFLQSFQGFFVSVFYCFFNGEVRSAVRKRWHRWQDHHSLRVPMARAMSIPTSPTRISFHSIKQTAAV
In short: (§1)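 Cells expressing human CRF1R or CRF2R are exposed to peptide or vehicle control, and receptor activation is read as cAMP induction, measured in cell lysates or via a CRE-linked reporter gene.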

CRF1R = biological target: T2, CRF1R (Homo sapiens, UniProt P34998); test: CRF1R agonist activation (EC50 / Emax), called comparative CRF binding; format: cell-based; details: for Emax: read-out: CRF1R Emax; for EC50: read-out: CRF1R EC50
T2 sequence (P34998 24-415): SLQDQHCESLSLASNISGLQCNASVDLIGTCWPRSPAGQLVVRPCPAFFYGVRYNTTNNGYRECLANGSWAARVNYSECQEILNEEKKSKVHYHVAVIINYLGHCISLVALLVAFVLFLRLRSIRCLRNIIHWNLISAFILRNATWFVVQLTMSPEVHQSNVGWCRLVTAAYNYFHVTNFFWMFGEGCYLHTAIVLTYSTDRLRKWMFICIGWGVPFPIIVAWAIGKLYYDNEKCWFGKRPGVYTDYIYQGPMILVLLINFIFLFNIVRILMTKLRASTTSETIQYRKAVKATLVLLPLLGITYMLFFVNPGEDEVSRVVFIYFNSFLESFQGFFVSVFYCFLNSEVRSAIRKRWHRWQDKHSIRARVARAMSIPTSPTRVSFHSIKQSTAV
In short: as §1

CC[C@H](C)[C@H](N)C(=O)N[C@H](C(=O)N[C@@H](CC(C)C)C(=O)N[C@@H](CO)C(=O)N[C@@H](CC(C)C)C(=O)N[C@@H](CC(=O)O)C(=O)N[C@H](C(=O)N1CCC[C@H]1C(=O)N[C@H](C(=O)NCC(=O)N[C@@H](CC(C)C)C(=O)N[C@@H](CC(C)C)C(=O)N[C@@H](CCC(N)=O)C(=O)N[C@H](C(=O)N[C@@H](CC(C)C)C(=O)N[C@@H](CC(C)C)C(=O)N[C@@H](CCC(=O)O)C(=O)N[C@H](C(=O)N[C@@H](CCC(=O)O)C(=O)N[C@@H](CCCCN)C(=O)N[C@@H](CCC(N)=O)C(=O)N[C@@H](CCC(=O)O)C(=O)N[C@@H](CCCCN)C(=O)N[C@@H](CCC(=O)O)C(=O)N[C@@H](CCCCN)C(=O)N[C@@H](CCC(N)=O)C(=O)N[C@@H](CCC(N)=O)C(=O)N[C@@H](C)C(=O)N[C@@H](C)C(=O)N[C@@H](CC(N)=O)C(=O)N[C@@H](CC(N)=O)C(=O)N[C@@H](CCCNC(=N)N)C(=O)N[C@@H](CC(C)C)C(=O)N[C@@H](CC(C)C)C(=O)N[C@@H](CC(C)C)C(=O)N[C@@H](CC(=O)O)C(=O)N[C@H](C(=O)N[C@H](C(N)=O)[C@@H](C)CC)[C@@H](C)O)[C@@H](C)CC)[C@@H](C)CC)[C@@H](C)CC)C(C)C)C(C)C [compound 158] (H-IVLSLDVPIGLLQILLEIEKQEKEKQQAANNRLLLDTI-NH2)
Emax (CRF2R): 89% | Emax (CRF1R): 15%

CC[C@H](C)[C@H](NC(=O)[C@H](C)NC(=O)[C@H](CC(N)=O)NC(=O)[C@H](CCC(N)=O)NC(=O)[C@H](CCC(=O)O)NC(=O)[C@H](C)NC(=O)[C@H](CCCNC(=N)N)NC(=O)[C@H](CCC(=O)O)NC(=O)[C@H](CCCNC(=N)N)NC(=O)[C@H](CCC(N)=O)NC(=O)[C@H](CO)NC(=O)[C@H](CCC(N)=O)NC(=O)[C@@H](NC(=O)[C@H](CCCCN)NC(=O)[C@H](CCC(=O)O)NC(=O)[C@H](CC(C)C)NC(=O)[C@H](CCC(=O)O)NC(=O)[C@H](CC(C)C)NC(=O)[C@H](CC(C)C)NC(=O)[C@@H](NC(=O)[C@H](CCCNC(=N)N)NC(=O)[C@H](CC(C)C)NC(=O)[C@H](CC(C)C)NC(=O)[C@@H](NC(=O)[C@H](CC(C)C)NC(=O)[C@@H]1CCCN1C(=O)[C@H](CC(C)C)NC(=O)[C@H](CC(=O)O)NC(=O)[C@@H](NC(=O)[C@H](CO)NC(=O)[C@H](CC(C)C)NC(=O)[C@H](CO)NC(=O)[C@@H]1CCCN1C(=O)[C@H](CC(N)=O)NC(=O)[C@@H](N)CC(=O)O)[C@@H](C)CC)[C@@H](C)CC)[C@@H](C)O)[C@@H](C)O)C(=O)N[C@H](C(=O)N[C@@H](Cc1ccccc1)C(=O)N[C@@H](C)C(=O)N[C@@H](CO)C(=O)N[C@H](C(N)=O)C(C)C)[C@@H](C)CC [compound 345] (H-DNPSLSIDLPLILLRTLLELEKTQSQRERAEQNAIIFASV-NH2; N-terminus assumed)
EC50 (CRF2R): 0.0397 µM | Emax (CRF2R): 100% | EC50 (CRF1R): ≥ 1 µM | Emax (CRF1R): 18.8%

NDDPPISIDLPFLLLRNMIEMARIENEREQAGLNAKYLAEV-NH2 [compound 260]
EC50 (CRF2R): ≥ 0.1 µM | Emax (CRF2R): 89.3% | EC50 (CRF1R): 0.834 µM | Emax (CRF1R): 89.7%

CC[C@H](C)[C@H](NC(=O)[C@H](CCCNC(=N)N)NC(=O)[C@H](C)NC(=O)[C@H](CC(N)=O)NC(=O)[C@H](CCC(N)=O)NC(=O)[C@H](CCC(=O)O)NC(=O)[C@H](C)NC(=O)[C@H](CCCNC(=N)N)NC(=O)[C@H](CCC(=O)O)NC(=O)[C@H](CCCNC(=N)N)NC(=O)[C@H](CCC(N)=O)NC(=O)[C@H](CO)NC(=O)[C@H](CCC(N)=O)NC(=O)[C@@H](NC(=O)[C@H](CCCNC(=N)N)NC(=O)[C@H](C)NC(=O)[C@H](CC(C)C)NC(=O)[C@H](CCC(=O)O)NC(=O)[C@H](CC(C)C)NC(=O)[C@H](CC(C)C)NC(=O)[C@@H](NC(=O)[C@H](CCCNC(=N)N)NC(=O)[C@H](CC(C)C)NC(=O)[C@H](CC(C)C)NC(=O)[C@H](CC(C)C)NC(=O)[C@H](CC(C)C)NC(=O)[C@@H]1CCCN1C(=O)[C@H](CC(C)C)NC(=O)[C@H](CC(=O)O)NC(=O)[C@@H](NC(=O)[C@H](CO)NC(=O)[C@H](CC(C)C)NC(=O)[C@H](CO)NC(=O)[C@@H]1CCCN1C(=O)[C@H](CC(N)=O)NC(=O)[C@@H](N)CC(=O)O)[C@@H](C)CC)[C@@H](C)O)[C@@H](C)O)C(=O)N[C@@H](Cc1ccccc1)C(=O)N[C@@H](C)C(=O)N[C@@H](CCCNC(=N)N)C(=O)N[C@H](C(N)=O)C(C)C [compound 340] (H-DNPSLSIDLPLLLLRTLLELARTQSQRERAEQNARIFARV-NH2; N-terminus assumed)
Emax (CRF2R): 100% | Emax (CRF1R): 96%

SQEPPISLDLTIGLLREVLEMTKADQLAQQAHSNRKLLDIA-NH2 [compound 86]
Emax (CRF2R): 8.1% | Emax (CRF1R): 4.6%

CC[C@H](C)[C@H](N)C(=O)N[C@H](C(=O)N[C@@H](CC(C)C)C(=O)N[C@@H](CO)C(=O)N[C@@H](CC(C)C)C(=O)N[C@@H](CC(=O)O)C(=O)N[C@H](C(=O)N1CCC[C@H]1C(=O)N[C@H](C(=O)NCC(=O)N[C@@H](CC(C)C)C(=O)N[C@@H](CC(C)C)C(=O)N[C@@H](CCC(N)=O)C(=O)N[C@H](C(=O)N[C@@H](CC(C)C)C(=O)N[C@@H](CC(C)C)C(=O)N[C@@H](CCC(=O)O)C(=O)N[C@@H](CCC(N)=O)C(=O)N[C@@H](C)C(=O)N[C@@H](C)C(=O)N[C@@H](C)C(=O)N[C@@H](CCCNC(=N)N)C(=O)N[C@@H](CCC(=O)O)C(=O)N[C@@H](CCC(N)=O)C(=O)N[C@@H](C)C(=O)N[C@H](C(=O)N[C@H](C(=O)N[C@@H](CC(N)=O)C(=O)N[C@@H](C)C(=O)N[C@@H](CCCNC(=N)N)C(=O)N[C@H](C(=O)N[C@@H](CC(C)C)C(=O)N[C@@H](C)C(=O)N[C@@H](CCCNC(=N)N)C(=O)N[C@H](C(N)=O)C(C)C)[C@@H](C)CC)[C@@H](C)O)[C@@H](C)O)[C@@H](C)CC)[C@@H](C)CC)C(C)C)C(C)C [compound 139] (H-IVLSLDVPIGLLQILLEQAAAREQATTNARILARV-NH2; N-terminus assumed)
EC50 (CRF2R): 0.0426 µM | Emax (CRF2R): 60% | EC50 (CRF1R): > 0.1 µM | Emax (CRF1R): 4%

CC[C@H](C)[C@H](NC(=O)[C@H](CCCNC(=N)N)NC(=O)[C@H](C)NC(=O)[C@H](CC(N)=O)NC(=O)[C@H](CCC(N)=O)NC(=O)[C@H](CCC(=O)O)NC(=O)[C@H](C)NC(=O)[C@H](CCCNC(=N)N)NC(=O)[C@H](CCC(=O)O)NC(=O)[C@H](CCCNC(=N)N)NC(=O)[C@H](CCC(N)=O)NC(=O)[C@H](CO)NC(=O)[C@H](CCC(N)=O)NC(=O)[C@@H](NC(=O)[C@H](CCCCN)NC(=O)[C@H](CCC(=O)O)NC(=O)[C@H](CC(C)C)NC(=O)[C@H](CCC(=O)O)NC(=O)[C@H](CC(C)C)NC(=O)[C@H](CC(C)C)NC(=O)[C@@H](NC(=O)[C@H](CCCNC(=N)N)NC(=O)[C@H](CC(C)C)NC(=O)[C@H](CC(C)C)NC(=O)[C@H](Cc1ccccc1)NC(=O)[C@H](CC(C)C)NC(=O)[C@@H]1CCCN1C(=O)[C@H](CC(C)C)NC(=O)[C@H](CC(=O)O)NC(=O)[C@@H](NC(=O)[C@H](CO)NC(=O)[C@H](CC(C)C)NC(=O)[C@H](CO)NC(=O)[C@@H]1CCCN1)[C@@H](C)CC)[C@@H](C)O)[C@@H](C)O)C(=O)N[C@@H](Cc1ccccc1)C(=O)N[C@@H](C)C(=O)N[C@@H](CCCNC(=N)N)C(=O)N[C@H](C(N)=O)C(C)C [compound 331] (H-PSLSIDLPLFLLRTLLELEKTQSQRERAEQNARIFARV-NH2; N-terminus assumed)
Emax (CRF2R): 100% | Emax (CRF1R): 78.7%

CC[C@H](C)[C@H](N)C(=O)N[C@H](C(=O)N[C@@H](CC(C)C)C(=O)N[C@@H](CO)C(=O)N[C@@H](CC(C)C)C(=O)N[C@@H](CC(=O)O)C(=O)N[C@H](C(=O)N1CCC[C@H]1C(=O)N[C@H](C(=O)NCC(=O)N[C@@H](CC(C)C)C(=O)N[C@@H](CC(C)C)C(=O)N[C@@H](CCC(N)=O)C(=O)N[C@H](C(=O)N[C@@H](CC(C)C)C(=O)N[C@@H](CC(C)C)C(=O)N[C@@H](CCC(=O)O)C(=O)N[C@@H](CCC(N)=O)C(=O)N[C@@H](CCC(=O)O)C(=O)N[C@@H](CCCNC(=N)N)C(=O)N[C@@H](CCC(N)=O)C(=O)N[C@@H](CCCNC(=N)N)C(=O)N[C@@H](C)C(=O)N[C@@H](C)C(=O)N[C@@H](CCCNC(=N)N)C(=O)N[C@@H](CCC(=O)O)C(=O)N[C@@H](CCC(N)=O)C(=O)N[C@@H](C)C(=O)N[C@H](C(=O)N[C@H](C(=O)N[C@@H](CC(N)=O)C(=O)N[C@@H](C)C(=O)N[C@@H](CCCNC(=N)N)C(=O)N[C@H](C(=O)N[C@@H](CC(C)C)C(=O)N[C@@H](C)C(=O)N[C@@H](CCCNC(=N)N)C(=O)N[C@H](C(N)=O)C(C)C)[C@@H](C)CC)[C@@H](C)O)[C@@H](C)O)[C@@H](C)CC)[C@@H](C)CC)C(C)C)C(C)C [compound 111] (H-IVLSLDVPIGLLQILLEQERQRAAREQATTNARILARV-NH2; N-terminus assumed)
Emax (CRF2R): 99% | Emax (CRF1R): 9%

NDDPPISIDLPYYLLRNMIEMARIENEREQAGLNAKYLAEV-NH2 [compound 267]
Emax (CRF2R): 44.2% | Emax (CRF1R): 22.8%

Source: patent US6936585B2, “Corticotropin releasing factor 2 receptor agonists” (priority 2002, dated 2005)
